These results are taken from US10047067B2, “Composition for treating kidney disease comprising pyrazole derivative” (Ewha University-Industry Collaboration Foundation, priority 2012, dated 2018).

Molecules are shown by their SMILES. pIC50: −log10 of the molar value.

Broadly, the inhibition is the percentage by which the read-out fell short of the control. The pIC50 is the negative decadic logarithm of the IC50, by convention in mol/L.

For this assay, the system named is collagen Iα1 expression in proximal tubular cells (mProx24). Kind of assay: Inhibitory effect on collagen Iα1 expression in proximal tubular cells (hTGF-β1 stimulated, real-time PCR). The assay is classed as cell-based. The settings on record: for mrna remaining at 0.01 µM / mrna remaining at 0.1 µM / mrna remaining at 1 µM / mrna remaining at 10 µM / inhibition at 0.01 µM / inhibition at 0.1 µM / inhibition at 1 µM / inhibition at 10 µM / pIC50: Mus musculus; for mrna remaining at 0.01 µM / mrna remaining at 0.1 µM / mrna remaining at 1 µM / mrna remaining at 10 µM: Col1, mProx24, 5 ng/ml hTGF-β1 6 hrs, relative to hTGF-β1 alone = 1, read-out: Mean expression level ratio of collagen Iα1 (Col1α) to 18S rRNA; for mrna remaining at 0.01 µM / inhibition at 0.01 µM: 0.01 μM compound; for mrna remaining at 0.1 µM / inhibition at 0.1 µM: 0.1 μM compound; for mrna remaining at 1 µM / inhibition at 1 µM: 1 μM compound; for mrna remaining at 10 µM / inhibition at 10 µM: 10 μM compound; for inhibition at 0.01 µM / inhibition at 0.1 µM / inhibition at 1 µM / inhibition at 10 µM: mProx24, 100% = control without hTGF-β1, 0% = hTGF-β1 alone, read-out: expression inhibition rate (collagen Iα1); for pIC50: mProx24, hTGF-β1 stimulated, read-out: IC50 (inhibition of collagen Iα1 expression). How it is done:
mProx24, which is a name of the proximal tubular cells derived from proximal tubule segments obtained by finely sectioning the kidney of adult C57BL6/J mice, was granted from Professor Sugaya, St. Marianna University School of Medicine, Kanagawa, Japan. mProx24 was cultured in DMEM (Dulbecco's modified Eagle's medium) supplemented with 10% fetal calf serum (FCS, Gibco), 100 U/ml penicillin, 100 μg/ml streptomycin, and 44 mM NaHCO3 at 37° C. in a 5% CO2 atmosphere. For quantitation of RNA expression, the cells were cultured in 6-well plates. When the cells grew 90% confluent, the medium was changed with a fresh 0.15% FCS (Gibco)-supplemented DMEM. Incubation in this medium for 24 hrs halted the cell growth to synchronize the growth cycle in the cells. Compounds of Examples 1 to 9 and Comparative Example were respectively dissolved in DMSO (dimethylsulfoxide) to form a concentration of 50 mM, and subjected to serial dilution to 10 mM, 1 mM, 0.1 mM, and 0.01 mM. 10 mM, 1 mM, 0.1 mM, and 0.01 mM solutions of each of the compounds of Examples 1 to 9 and Comparative Example were 1,000-fold diluted in 0.15% FCS (Gibco)-supplemented DMEM to form final concentrations of 10 μM, 1 μM, 0.1 μM, and 0.01 μM, respectively. In addition, 0 μM (DMSO 1 μL) was used. The cells were incubated for 1 hr in the dilutions and then for 6 hrs in the presence of 5 ng/ml recombinant human transforming growth factor-β1 (hTGF-β1, R&D Systems). For the control, hTGF-β1 was not used. Total RNA was extracted from mProx24 using Trizol (Invitrogen). For quantitation of mRNA expression, a reaction volume of 20 μL including cDNA transcripts, primer pairs, and SYBR Green PCR Master Mix (Applied Biosystems) was subjected to real-time PCR with the aid of StepOnePlus (Applied Biosystems) (real-time PCR condition: 95° C., 10 min→40 thermal cycles of denaturation at 95° C. for 15 sec and primer annealing at 60° C. for 1 min→95° C. for 15 sec, 60° C. for 1 min, and 95° C. for 15 sec to measure a melting curve). Quantitation was normalized to 18S rRNA expression level. A pair of primers for mouse collagen Iα1 were 5′-[…]-3′(SEQ ID NO: 13) and 5′-[…]-3′ (SEQ ID NO: 14). Forward and reverse primers for mouse r18S rRNA were 5′-CGAAAGCATTTGCCAAGAAT-3′ (SEQ ID NO: 11) and 5′-AGTCGGCATCGTTTATGGTC-3′ (SEQ ID NO: 12), respectively.
Experiment results are given in Tables 3 to 12 and FIGS. 4 to 13. Tables 3 to 12 and FIGS. 4 to 13 show inhibitory effects of the compounds of Examples 1 to 9 and Comparative Example 1 on collagen Iα1 expression in proximal tubular cells.
Data of Tables 3 to 12 and FIGS. 4 to 13 are measurements of experiments repeated three to five times for each concentration, and are expressed as mean±standard error (SE). Statistic comparison among the groups was analyzed by ANOVA and Fisher's least significant difference test, with significance at p<0.05. *P<0.05 vs. WT, †P<0.05 vs. DM.
In Tables 3 to 12, mean values of expression level ratios of collagen Iα1 (Col1α) to 18S rRNA (18S), and % inhibition against collagen Iα1 expression for each group are shown, together with IC50 value (μM). In this regard, % inhibition means relative inhibition to 100% for the control and 0% for the group that was treated with hTGF-β1 but not with any of the compounds of Examples or Comparative Example.

With `COc1cccc(-c2cc(O)n(-c3ccccn3)n2)c1` [Compound 18-001, 3-(3-Methoxyphenyl)-1-(Pyridin-2-yl)-1H-Pyrazol-5-ol], the mrna remaining at 0.01 µM was 74.8%, the mrna remaining at 0.1 µM is 69.8%, the mrna remaining at 1 µM came out at 64.2% and the mrna remaining at 10 µM is 34.5%. In addition, the inhibition at 0.01 µM turned out to be 31%, the inhibition at 0.1 µM was 37.1%, the inhibition at 1 µM was 44% and the inhibition at 10 µM was 80.5%. The pIC50 was 5.50.
Turning to `Oc1cc(-c2ccc(Br)cc2)nn1-c1ccccn1` [Compound 18-066, 3-(4-bromophenyl)-1-(pyridin-2-yl)-1H-pyrazol-5-ol], the mrna remaining at 0.01 µM came to 78.5%, the mrna remaining at 0.1 µM was 71.7%, the mrna remaining at 1 µM was 72.6% and the mrna remaining at 10 µM is 58.3%. For the same compound, the inhibition at 0.01 µM turned out to be 30.2%, the inhibition at 0.1 µM was found to be 39.8%, the inhibition at 1 µM turned out to be 38.5% and the inhibition at 10 µM is 58.6%. The pIC50 is 5.67.
Take `CC(=O)Oc1cc(-c2ccc(Br)cc2)nn1-c1ccccn1` [Compound 18-067, 3-(4-bromophenyl)-1-(pyridin-2-yl)-1H-pyrazol-5-yl acetate]: the mrna remaining at 0.01 µM was 70%, the mrna remaining at 0.1 µM amounted to 60.7%, the mrna remaining at 1 µM is 56.2% and the mrna remaining at 10 µM is 32.5%. Also, the inhibition at 0.01 µM came out at 35.6%, the inhibition at 0.1 µM was determined as 46.6%, the inhibition at 1 µM was 52% and the inhibition at 10 µM was found to be 80.1%. Besides, the negative logarithm of the IC50 (pIC50) was 6.52.
In the case of `Oc1cc(-c2cccc(I)c2)nn1-c1ccccn1` [Compound 18-082, 3-(3-iodophenyl)-1-(pyridin-2-yl)-1H-pyrazol-5-ol], the mrna remaining at 0.01 µM worked out at 71%, the mrna remaining at 0.1 µM is 60.5%, the mrna remaining at 1 µM was 39.1% and the mrna remaining at 10 µM amounted to 31.2%. The inhibition at 0.01 µM amounted to 39.5%, the inhibition at 0.1 µM was determined as 53.8%, the inhibition at 1 µM turned out to be 83% and the inhibition at 10 µM came to 93.7%. For the same compound, the pIC50 is 6.98.
On to `Oc1cc(COc2ccc3ccccc3c2)nn1-c1ccccn1` [Compound 18-095, 3-((naphthalen-3-yloxy)methyl)-1-(pyridin-2-yl)-1H-pyrazol-5-ol], for which the mrna remaining at 0.01 µM turned out to be 69.9%, the mrna remaining at 0.1 µM amounted to 66.3%, the mrna remaining at 1 µM amounted to 50.4% and the mrna remaining at 10 µM came to 26.8%. In addition, the inhibition at 0.01 µM was determined as 37.2%, the inhibition at 0.1 µM turned out to be 41.7%, the inhibition at 1 µM was 61.4% and the inhibition at 10 µM stood at 90.6%. The pIC50 was 6.64.
In the case of `Oc1cc(-c2ccccc2-c2ccc3c(c2)OCO3)nn1-c1ccccn1` [Compound 18-177, 3-(2-(benzo[d][1,3]dioxol-5-yl)phenyl)-1-(pyridin-2-yl)-1H-pyrazol-5-ol], the mrna remaining at 0.01 µM came to 96%, the mrna remaining at 0.1 µM was 83.9%, the mrna remaining at 1 µM was 74.2% and the mrna remaining at 10 µM stood at 43.8%. Besides, the inhibition at 0.01 µM was 5.46%, the inhibition at 0.1 µM was determined as 22%, the inhibition at 1 µM amounted to 35.2% and the inhibition at 10 µM was 76.7%. For the same compound, the negative logarithm of the IC50 (pIC50) is 5.88.
`Oc1cc(-c2ccc(-c3ccccc3)cc2)nn1-c1ncccn1` [Compound 18-186, 3-(biphenyl-4-yl)-1-(pyrimidin-2-yl)-1H-pyrazol-5-ol]: the mrna remaining at 0.01 µM was 82.5%, the mrna remaining at 0.1 µM worked out at 56.9%, the mrna remaining at 1 µM came out at 58.6% and the mrna remaining at 10 µM was found to be 58.3%. The inhibition at 0.01 µM came to 22.5%, the inhibition at 0.1 µM came to 55.4%, the inhibition at 1 µM came to 53.2% and the inhibition at 10 µM turned out to be 53.6%. The negative-log IC50 (pIC50) was 7.11.
Take `c1ccc(COc2c(Cc3ccccc3)c(-c3ccccc3)nn2-c2ccccn2)cc1` [Compound 18-233, 3-Phenyl-4-Benzyl-5-Benzyloxy-1-(2-Pyridinyl)Pyrazole, reference compound]: the mrna remaining at 0.01 µM stood at 93.3%, the mrna remaining at 0.1 µM amounted to 75.7%, the mrna remaining at 1 µM turned out to be 71.2% and the mrna remaining at 10 µM worked out at 65.6%. Also, the inhibition at 0.01 µM was 8.23%, the inhibition at 0.1 µM was found to be 29.9%, the inhibition at 1 µM came out at 35.4% and the inhibition at 10 µM turned out to be 42.3%. Besides, the negative-log IC50 (pIC50) was 4.99. Further, under “result in words”, the “expression of the extracellular matrix, collagen Iα1 (Col1α), in proximal tubular cells” value is given as “decreased the expression level”.
As to `CCCc1c(/C=C/c2ccc(O)c(OC)c2)nn(-c2ccccn2)c1O` [Compound 18-273, 3-{2-(4-hydroxy-3-methoxyphenyl)vinyl}-4-propyl-1-(2-pyridinyl)pyrazol-5-ol], the mrna remaining at 0.01 µM amounted to 40.8%, the mrna remaining at 0.1 µM was found to be 83.5%, the mrna remaining at 1 µM was found to be 83.2% and the mrna remaining at 10 µM worked out at 46%. Further, the inhibition at 0.01 µM was 82.6%, the inhibition at 0.1 µM is 23%, the inhibition at 1 µM amounted to 23.4% and the inhibition at 10 µM came out at 75.3%. The pIC50 was 5.75.
